Laboratory results published in patent publication US12522877B2, “Early detection of drug-resistant mycobacterium tuberculosis” (The Translational Genomics Research Institute, priority 2020, dated 2026).

Key:
M. tuberculosis isolates [1] = format: cell-based, Mycobacterium tuberculosis
[2] = human, in vivo
M. tuberculosis isolates [3] = format: cell-based, Mycobacterium tuberculosis; remark: listed apart in the source
[4] = in vivo; cited from earlier work

Structure (SMILES) | Phenotypic DST (M. tuberculosis isolates [1]) | adverse effect for which the drug was stopped [2] | also measured
NCC[C@H](O)C(=O)N[C@@H]1C[C@H](N)[C@@H](O[C@H]2O[C@H](CN)[C@@H](O)[C@H](O)[C@H]2O)[C@H](O)[C@H]1O[C@H]1O[C@H](CO)[C@@H](O)[C@H](N)[C@H]1O [Amikacin] | S |  | Phenotypic susceptibility (M. tuberculosis isolates [1]): phenotypically susceptible; Routine phenotypic DST (M. tuberculosis isolates [1]): susceptible
NNC(=O)c1ccncc1 [Isoniazid] |  | vision problems | 
CC1COc2c(N3CCN(C)CC3)c(F)cc3c(=O)c(C(=O)O)cn1c23 (stereo not drawn) [Ofloxacin] | S and R |  | 
NC(=O)c1cnccn1 [Pyrazinamide] |  | persistent arthralgias and changes in vision | 
COc1nc2ccc(Br)cc2cc1[C@@H](c1ccccc1)[C@@](O)(CCN(C)C)c1cccc2ccccc12 [bedaquiline] |  |  | acquired resistance to bedaquiline (M. tuberculosis isolates [3]): 39%; half-life [4]: 5.5 months
CC[C@@H](CO)NCCN[C@@H](CC)CO [ethambutol] |  | persistent arthralgias and changes in vision | 
